In one data set the target is Insulin receptor (Homo sapiens, UniProt P06213). Nature of the data set: Inhibition of IR.
A short description of data set [1]: Half-life in human liver microsomes. The class given is ADME, Microsome.
Data set [2] in a line: Half-life in rat liver microsomes. The class given is ADME, Microsome.
Another data set addresses Cytochrome P450 2C19 (Homo sapiens, UniProt P33261). Nature of the data set: Inhibition of CYP2C19. The class given is ADME.
The next data set deals with Cytochrome P450 2C9 (Homo sapiens, UniProt P11712). The data set can be described thus: Inhibition of CYP2C9. The class given is ADME.
The target of the next data set is Cytochrome P450 3A4 (Homo sapiens, UniProt P08684). The data set can be described thus: Inhibition of CYP3A4. The class given is ADME.
The nature of data set [3]: Half-life in mouse liver microsomes. Format: ADME, Microsome.
For a further data set, the target named is T1, Cytochrome P450 1A2 (Homo sapiens, UniProt P05177).
T1 sequence (P05177 whole entry): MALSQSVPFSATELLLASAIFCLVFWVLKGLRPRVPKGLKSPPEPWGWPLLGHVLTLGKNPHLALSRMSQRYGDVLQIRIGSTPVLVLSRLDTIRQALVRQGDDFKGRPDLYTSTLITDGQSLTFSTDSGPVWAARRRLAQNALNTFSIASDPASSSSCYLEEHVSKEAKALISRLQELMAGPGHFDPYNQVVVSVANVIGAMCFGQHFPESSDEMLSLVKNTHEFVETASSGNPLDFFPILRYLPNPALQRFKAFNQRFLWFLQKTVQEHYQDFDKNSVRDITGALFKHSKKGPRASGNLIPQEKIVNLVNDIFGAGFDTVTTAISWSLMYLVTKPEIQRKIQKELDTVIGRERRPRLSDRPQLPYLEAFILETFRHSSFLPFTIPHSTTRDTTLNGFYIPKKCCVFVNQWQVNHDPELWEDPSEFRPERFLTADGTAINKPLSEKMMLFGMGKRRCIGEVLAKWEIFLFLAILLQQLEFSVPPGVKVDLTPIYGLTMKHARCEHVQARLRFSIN
Nature of the data set: Inhibition of CYP1A2. Format: ADME.

For another data set, the target named is Cytochrome P450 2D6 (Homo sapiens, UniProt P10635). Nature of the data set: Inhibition of CYP2D6. The class given is ADME.
Data set [4] deals with ALK tyrosine kinase receptor (Homo sapiens, UniProt Q9UM73). The data set can be described thus: Inhibition of human recombinant ALK assessed as phosphorylated product using PLC-gamma/GST substrate by modified ELISA method.
Data set [5] in a line: Oral bioavailability in Sprague-Dawley rat. The class given is ADME, organism-based. Conditions: in vivo.
The nature of data set [6]: Clearance in iv dosed Sprague-Dawley rat. Format: ADME, organism-based. Conditions: in vivo.
Data set [7] can be described thus: Half-life in iv dosed Sprague-Dawley rat. Format: ADME, organism-based. Conditions: in vivo.

pIC50: −log10 of the molar value. Where only a bound is given, the exact number is not on record here.

Insulin receptor, sequence (P06213 28-758 limits assumed): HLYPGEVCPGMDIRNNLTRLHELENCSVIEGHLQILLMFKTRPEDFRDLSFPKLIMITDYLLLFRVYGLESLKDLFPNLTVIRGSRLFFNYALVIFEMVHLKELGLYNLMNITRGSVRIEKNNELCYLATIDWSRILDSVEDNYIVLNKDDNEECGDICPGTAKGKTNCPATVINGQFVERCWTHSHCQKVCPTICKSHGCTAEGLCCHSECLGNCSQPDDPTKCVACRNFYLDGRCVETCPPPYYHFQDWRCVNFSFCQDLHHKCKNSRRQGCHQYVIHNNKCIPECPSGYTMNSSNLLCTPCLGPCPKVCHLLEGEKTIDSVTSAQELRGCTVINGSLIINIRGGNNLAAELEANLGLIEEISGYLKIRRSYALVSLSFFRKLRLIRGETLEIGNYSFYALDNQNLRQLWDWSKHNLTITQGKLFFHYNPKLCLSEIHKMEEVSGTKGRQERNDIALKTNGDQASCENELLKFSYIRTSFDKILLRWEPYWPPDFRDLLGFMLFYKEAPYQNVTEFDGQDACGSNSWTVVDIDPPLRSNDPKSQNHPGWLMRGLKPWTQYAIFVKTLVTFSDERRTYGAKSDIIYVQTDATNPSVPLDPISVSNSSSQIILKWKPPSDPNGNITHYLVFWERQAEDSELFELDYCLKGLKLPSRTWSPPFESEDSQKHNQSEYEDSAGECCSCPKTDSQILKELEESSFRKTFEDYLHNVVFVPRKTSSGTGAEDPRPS
Insulin receptor, sequence (P06213 763-1382 limits assumed): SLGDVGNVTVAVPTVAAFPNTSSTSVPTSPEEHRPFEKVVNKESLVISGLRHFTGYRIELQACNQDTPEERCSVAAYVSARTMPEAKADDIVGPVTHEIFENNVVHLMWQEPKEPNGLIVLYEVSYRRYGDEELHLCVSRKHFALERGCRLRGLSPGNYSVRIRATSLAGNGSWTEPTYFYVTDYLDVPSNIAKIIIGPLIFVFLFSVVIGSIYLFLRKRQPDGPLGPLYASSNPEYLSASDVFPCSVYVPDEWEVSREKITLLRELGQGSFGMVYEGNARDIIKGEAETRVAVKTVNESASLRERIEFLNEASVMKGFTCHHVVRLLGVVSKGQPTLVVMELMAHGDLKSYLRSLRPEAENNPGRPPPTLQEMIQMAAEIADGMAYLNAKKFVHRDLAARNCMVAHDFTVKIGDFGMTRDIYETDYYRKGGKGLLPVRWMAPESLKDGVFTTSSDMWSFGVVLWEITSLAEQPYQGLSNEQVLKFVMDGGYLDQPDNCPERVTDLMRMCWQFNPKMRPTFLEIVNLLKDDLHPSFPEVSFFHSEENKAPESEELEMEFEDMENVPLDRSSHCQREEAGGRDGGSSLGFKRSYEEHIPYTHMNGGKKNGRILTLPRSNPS
ALK tyrosine kinase receptor, sequence (Q9UM73 whole entry): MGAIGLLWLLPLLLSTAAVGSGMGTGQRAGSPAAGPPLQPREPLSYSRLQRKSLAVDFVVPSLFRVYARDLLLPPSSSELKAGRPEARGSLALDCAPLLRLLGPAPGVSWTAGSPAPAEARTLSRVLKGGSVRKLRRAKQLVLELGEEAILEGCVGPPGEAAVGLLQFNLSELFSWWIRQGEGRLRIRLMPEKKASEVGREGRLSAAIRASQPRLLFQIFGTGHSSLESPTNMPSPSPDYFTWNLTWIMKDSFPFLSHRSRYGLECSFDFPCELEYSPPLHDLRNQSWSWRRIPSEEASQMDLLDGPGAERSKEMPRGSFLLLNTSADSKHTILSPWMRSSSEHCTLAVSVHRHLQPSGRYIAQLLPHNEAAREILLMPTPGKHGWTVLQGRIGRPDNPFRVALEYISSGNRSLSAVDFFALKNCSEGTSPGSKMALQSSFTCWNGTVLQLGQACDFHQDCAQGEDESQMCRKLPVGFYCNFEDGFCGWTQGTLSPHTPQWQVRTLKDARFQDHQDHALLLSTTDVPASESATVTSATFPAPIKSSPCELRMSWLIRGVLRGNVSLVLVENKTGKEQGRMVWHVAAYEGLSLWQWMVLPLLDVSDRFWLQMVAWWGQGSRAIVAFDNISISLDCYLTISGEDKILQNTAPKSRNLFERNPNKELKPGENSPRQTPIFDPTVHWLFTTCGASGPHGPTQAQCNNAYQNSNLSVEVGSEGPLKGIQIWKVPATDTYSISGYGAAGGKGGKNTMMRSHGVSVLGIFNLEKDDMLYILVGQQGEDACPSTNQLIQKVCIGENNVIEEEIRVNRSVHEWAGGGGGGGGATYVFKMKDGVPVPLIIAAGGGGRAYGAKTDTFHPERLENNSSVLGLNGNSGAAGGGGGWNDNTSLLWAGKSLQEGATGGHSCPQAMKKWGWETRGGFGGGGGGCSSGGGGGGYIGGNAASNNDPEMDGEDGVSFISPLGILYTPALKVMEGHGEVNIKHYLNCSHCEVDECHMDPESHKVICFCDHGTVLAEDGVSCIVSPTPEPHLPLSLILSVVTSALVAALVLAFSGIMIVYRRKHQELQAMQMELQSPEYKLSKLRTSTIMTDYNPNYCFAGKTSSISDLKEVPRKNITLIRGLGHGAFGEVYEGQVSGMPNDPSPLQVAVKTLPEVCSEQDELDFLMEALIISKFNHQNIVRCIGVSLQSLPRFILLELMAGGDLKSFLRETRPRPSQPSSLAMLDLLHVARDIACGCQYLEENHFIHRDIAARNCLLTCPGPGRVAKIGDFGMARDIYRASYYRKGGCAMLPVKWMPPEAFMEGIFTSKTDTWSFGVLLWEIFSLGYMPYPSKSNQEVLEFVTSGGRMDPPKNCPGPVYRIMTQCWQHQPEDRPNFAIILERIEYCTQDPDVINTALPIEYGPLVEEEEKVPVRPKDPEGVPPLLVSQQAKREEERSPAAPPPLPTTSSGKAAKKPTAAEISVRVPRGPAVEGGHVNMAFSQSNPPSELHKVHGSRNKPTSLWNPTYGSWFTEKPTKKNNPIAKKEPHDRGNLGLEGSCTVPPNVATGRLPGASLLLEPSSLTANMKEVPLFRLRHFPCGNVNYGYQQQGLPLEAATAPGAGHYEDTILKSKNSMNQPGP
Cytochrome P450 2C19, sequence (P33261 whole entry): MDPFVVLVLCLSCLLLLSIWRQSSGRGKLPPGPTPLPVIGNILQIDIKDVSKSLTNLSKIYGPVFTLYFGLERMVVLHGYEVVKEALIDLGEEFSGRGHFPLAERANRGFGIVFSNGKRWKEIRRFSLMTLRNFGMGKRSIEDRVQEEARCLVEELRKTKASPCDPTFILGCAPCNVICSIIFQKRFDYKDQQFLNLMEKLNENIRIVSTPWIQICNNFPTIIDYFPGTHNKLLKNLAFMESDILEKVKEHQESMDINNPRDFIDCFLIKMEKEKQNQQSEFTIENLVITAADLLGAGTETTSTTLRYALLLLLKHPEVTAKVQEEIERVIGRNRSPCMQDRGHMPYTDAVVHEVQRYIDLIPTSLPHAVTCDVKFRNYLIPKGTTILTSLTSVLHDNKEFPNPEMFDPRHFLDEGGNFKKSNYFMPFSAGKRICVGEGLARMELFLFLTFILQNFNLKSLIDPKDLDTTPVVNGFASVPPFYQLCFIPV
Cytochrome P450 3A4, sequence (P08684 whole entry): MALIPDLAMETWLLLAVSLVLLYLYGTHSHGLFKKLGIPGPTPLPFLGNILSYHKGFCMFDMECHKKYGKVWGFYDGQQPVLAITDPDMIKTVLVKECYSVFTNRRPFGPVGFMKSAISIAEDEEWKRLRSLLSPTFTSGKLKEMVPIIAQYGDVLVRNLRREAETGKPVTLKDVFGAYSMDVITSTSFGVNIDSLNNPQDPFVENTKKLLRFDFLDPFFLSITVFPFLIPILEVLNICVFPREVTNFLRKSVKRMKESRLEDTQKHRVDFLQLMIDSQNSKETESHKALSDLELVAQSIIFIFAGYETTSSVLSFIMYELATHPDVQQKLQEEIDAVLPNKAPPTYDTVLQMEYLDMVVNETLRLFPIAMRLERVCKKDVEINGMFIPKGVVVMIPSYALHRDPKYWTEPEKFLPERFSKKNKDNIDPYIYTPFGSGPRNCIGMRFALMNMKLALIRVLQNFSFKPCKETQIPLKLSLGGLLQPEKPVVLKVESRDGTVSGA
Cytochrome P450 2D6, sequence (P10635 whole entry): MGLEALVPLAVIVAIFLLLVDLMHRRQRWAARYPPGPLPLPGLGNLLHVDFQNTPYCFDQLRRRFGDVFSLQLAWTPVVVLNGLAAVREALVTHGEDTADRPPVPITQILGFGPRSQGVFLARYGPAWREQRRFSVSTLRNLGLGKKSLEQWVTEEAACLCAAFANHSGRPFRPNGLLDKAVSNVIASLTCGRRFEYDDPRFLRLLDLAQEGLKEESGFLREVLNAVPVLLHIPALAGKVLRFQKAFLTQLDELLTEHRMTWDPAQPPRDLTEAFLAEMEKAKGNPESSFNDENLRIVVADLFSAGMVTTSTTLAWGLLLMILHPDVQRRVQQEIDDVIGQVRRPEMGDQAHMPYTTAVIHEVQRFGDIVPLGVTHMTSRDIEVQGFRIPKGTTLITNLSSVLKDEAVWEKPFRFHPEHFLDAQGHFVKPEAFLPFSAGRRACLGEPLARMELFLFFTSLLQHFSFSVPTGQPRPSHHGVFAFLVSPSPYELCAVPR
Cytochrome P450 2C9, sequence (P11712 whole entry): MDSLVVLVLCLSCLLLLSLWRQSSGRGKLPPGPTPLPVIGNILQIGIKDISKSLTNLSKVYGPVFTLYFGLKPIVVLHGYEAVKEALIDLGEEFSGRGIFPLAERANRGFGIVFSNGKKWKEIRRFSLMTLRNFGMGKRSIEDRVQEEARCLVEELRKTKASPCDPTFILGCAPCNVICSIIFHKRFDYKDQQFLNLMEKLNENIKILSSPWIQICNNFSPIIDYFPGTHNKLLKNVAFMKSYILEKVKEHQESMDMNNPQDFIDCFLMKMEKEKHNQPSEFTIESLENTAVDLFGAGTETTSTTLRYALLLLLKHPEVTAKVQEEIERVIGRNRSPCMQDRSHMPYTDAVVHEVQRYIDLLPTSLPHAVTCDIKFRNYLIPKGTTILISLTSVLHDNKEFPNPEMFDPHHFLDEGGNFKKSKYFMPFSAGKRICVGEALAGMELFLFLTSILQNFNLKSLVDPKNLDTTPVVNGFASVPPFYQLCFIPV

`CN1CCN(c2ccc(Nc3ncc4ccc(-c5ccccc5N(C)S(C)(=O)=O)n4n3)cc2)CC1`: the pIC50 is 6.44 on Insulin receptor; under 4.52 against Cytochrome P450 2C19; under 4.52 on Cytochrome P450 2C9; 4.84 against Cytochrome P450 3A4; under 4.52 against Cytochrome P450 1A2; under 4.52 at Cytochrome P450 2D6. Besides, the pIC50 in data set [4] was 8.15. The half-life in [1] stood at 40 min; in data set [2], 21 min; in data set [3], 30 min.
On to `COc1cc(Nc2ncc3ccc(-c4ccccc4)n3n2)cc(OC)c1OC`, for which the results for the pIC50 (at Insulin receptor; in [4]) were 6.53 and 6.67, respectively.
The corresponding values for `c1ccc(-c2ccc3cnc(Nc4ccc(N5CCOCC5)cc4)nn23)cc1` are 6.71 and under 5.70.
The corresponding values for `CN1CCN(c2ccc(Nc3ncc4ccc(-c5ccccc5)n4n3)cc2)CC1` are 7.46 and 7.32.
For `COCCN1CCc2ccc(Nc3ncc4ccc(-c5ccccc5)n4n3)cc2CC1`, the pIC50 is 7.72 against Insulin receptor and 7.42 in data set [4].
With `COc1ccccc1-c1ccc2cnc(Nc3ccc(N4CCN(C)CC4)cc3)nn12`, in data set [5], the bioavailability worked out at 4%. Moreover, the pIC50 against Insulin receptor is 6.91; against Cytochrome P450 2C19, under 4.52; at Cytochrome P450 2C9, under 4.52; at Cytochrome P450 3A4 it was 5.03; against Cytochrome P450 1A2, under 4.52; on Cytochrome P450 2D6, under 4.52. Besides, in [4], the pIC50 is 7.70. Besides, the half-life in [1] is 40 min; in data set [2], 14 min; in data set [3], 8 min; in data set [7], 30 min. For the same molecule, the clearance in [6] was 60 mL/min/kg.
Regarding `CN1CCN(c2ccc(Nc3ncc4ccc(-c5ccccc5C(N)=O)n4n3)cc2)CC1`, the pIC50 at Insulin receptor was 6.49; in data set [4], 6.14.
For the molecule `CN1CCN(c2ccc(Nc3ncc4ccc(-c5ccccc5S(C)(=O)=O)n4n3)cc2)CC1`, the pIC50 at Insulin receptor is under 5.70; in data set [4] it was 6.05.
